Patent US6964983B2, “Compounds that modulate PPAR activity and methods for their preparation” (Warner-Lambert Company, LLC, priority 2002, dated 2005)

What was measured:
hPPARβ = biological target: T1, hPPARβ (Homo sapiens, UniProt Q03181); test: Transient transfection assay in HepG2 cells, Gal4-hPPARβ chimeric receptor, luciferase reporter; type: cell-based; settings: Hep G2-hBeta EC50, 24 hours incubation; read-out: EC50β nM (Group)
T1 sequence (Q03181 171-441 limits assumed): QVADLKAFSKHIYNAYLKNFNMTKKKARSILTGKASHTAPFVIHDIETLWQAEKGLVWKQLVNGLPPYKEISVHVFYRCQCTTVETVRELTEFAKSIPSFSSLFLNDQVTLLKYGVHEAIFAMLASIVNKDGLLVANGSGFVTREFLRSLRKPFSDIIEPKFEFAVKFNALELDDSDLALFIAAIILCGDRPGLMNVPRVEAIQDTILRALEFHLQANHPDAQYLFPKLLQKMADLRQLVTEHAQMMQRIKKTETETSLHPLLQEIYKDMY
How it was run: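 HepG2 cells were transiently co-transfected with Gal4-hPPARα or Gal4-hPPARβ chimeras, a UAS-E1B luciferase reporter and a β-gal normalisation plasmid. After re-plating, cells were treated with compound at 50 pM–50 μM for 24 h at 37°C. EC50 values were derived from luciferase read-out normalised to β-gal.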

hApoA1 transgenic mouse = test: Lipid concentrations in the hApoA1 transgenic mouse; type: in vivo; settings: 30 mg/kg/day, oral gavage
Experimental: B. Effect of PPAR Modulators on Lipid and Human Apoprotein A1 Concentrations in the hApoA1 Transgenic Mouse
Mice, transgenic for human apoA1, were purchased from Jackson laboratories. All animals were allowed normal chow (Ralston-Purina) and water ad libitum in temperature controlled rooms, under a 12-h light, 12-h dark cycle beginning with lights on at 6 AM. During the treatment phase of the study the mice were dosed daily between 6 and 9 AM by oral gavage using a suspension vehicle of 1.5% carboxymethylcellulose plus 0.2 percent Tween-20 (CMC/Tween) containing the specified compounds. Control animals received vehicle alone. Vehicle volume represented 0.25 percent of body weight. Under anesthesia, tail blood was obtained weekly in the morning at the indicated days of study. At termination, tissue samples (liver, intestine, fat, and muscle) were taken to study effects on genes effecting lipid metabolism. Each of the compounds of the present invention that were tested effected a significant increase in HDL over the values observed for the control animals. […] For instance, Example 4 raised HDL-c 97% and lowered triglycerides 65% relative to the control population, Example 6 raised HDL-c 24% and lowered triglycerides 59% relative to the control population, and Example 3 raised HDL-c 9% and lowered triglycerides 70% relative to the control population.

hPPARα = biological target: T2, hPPARα (Homo sapiens, UniProt Q07869); test: Transient transfection assay in HepG2 cells, Gal4-hPPARα chimeric receptor, luciferase reporter; type: cell-based; settings: Hep G2-hAlpha EC50, 24 hours incubation; read-out: EC50α nM (Group)
T2 sequence (Q07869 200-468 limits assumed): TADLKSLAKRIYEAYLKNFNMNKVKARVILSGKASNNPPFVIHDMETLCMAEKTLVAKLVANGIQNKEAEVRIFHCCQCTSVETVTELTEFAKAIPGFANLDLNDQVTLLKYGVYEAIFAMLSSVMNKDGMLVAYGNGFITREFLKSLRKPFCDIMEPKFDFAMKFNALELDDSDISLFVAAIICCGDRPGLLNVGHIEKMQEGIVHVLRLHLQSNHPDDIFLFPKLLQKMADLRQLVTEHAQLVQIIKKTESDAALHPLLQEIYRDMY
Experimental: 1. Test A. Transient Transfections Assay using the HepG2 Hepatoma Cell Line.
HepG2 cells were transiently transfected with an expression plasmids encoding hPPARα, hPPARβ or mPPARγ chimeric receptors and a reporter containing the yeast upstream activating sequence (UAS) upstream of the viral E1B promoter controlling a luciferase reporter gene. In addition, the plasmid pRSVβ-gal was used to control for transfection efficiency. HepG2 cells were grown in DMEM supplemented with 10% FBS and 1 μM non-essential amino acid. On the first day, cells were split into 100 mm dishes at 2.5×10^6/dish and incubated overnight at 37° C./5% CO2. On the second day the cells were transiently transfected with plasmid DNA encoding a chimeric receptor, the luciferase reporter gene; and β-gal. For each 100 mm dish, 15 μg of lucifease reporter (PG5E1b) DNA, 15 μg of Gal4-PPAR chimeric receptor DNA, and 1.5 μg of β-gal plasmid DNA were mixed with 1.4 ml of opti-MEM in the tube. 28 μl of LipoFectamine-2000 reagent was added to 1.4 ml of opti-MEM in the tube, and incubate for 5 min at RT. The diluted Lipofectamine-2000 reagent was combined with the DNA mixture, and incubate for 20 min at RT. After fresh medium was added to each 100 mm dish of cells, 2.8 ml of Lipofectamine2000-DNA mixture was added dropwise to the 100 mm dish containing 14 ml of medium, and incubate 37° C. overnight. On day three cells were trypsinized off the 100 mm dishes and re-plated on 96 well plates. Cells were plated at 2.5×10^4 cells per well in 150 μl of media and 50 μl of compound diluted by media was added. The test compound added were in the range from 50 μM to 50 pM. After addition of compounds, the plates were incubated at 37° C. for 24 hours. Subsequently cells were washed with once with 100 μl of PBS, lysed, and processed for measuring luciferase and β-gal activity using Dual-Light luciferase kit from Tropix ®, according to the manufacturer's recommendations, on an EG&G Bethold MicroLumat LB96P luminometer. EC50 values were obtained using the GraphPad Prism™ program.

[1] = tested on: diabetic cynomolgus monkeys; test: Eight-week rising-dose treatment of diabetic (type II) cynomolgus monkeys; type: in vivo; settings: for Exogenous Insulin Requirement / Leptin (plasma, ELISA): Diabetic Treated; for Diabetic Monkey Mean Body Weight: treated group (Txt)
Experimental: (§1) C. Effect of Compounds of the Invention on Insulin Resistant or Diabetic Cynomolgus Monkeys
(§2) Cynomolgus monkeys that were either insulin resistant or diabetic (type II) were treated for eight weeks with [5-Methoxy-2-methyl-4-(4′-trifluoromethyl-biphenyl-4-ylmethylsulfanyl)-phenoxy]-acetic acid in a rising dose fashion (0.1 to 1 mg/kg). Plasma was sampled bi-weekly and analyzed for glycemics and leptin. Body weight was also measured at various time points across the study. The diabetic monkey mean body weight data is presented in Table 2 and the insulin resistant monkey mean body weight data is presented in Table 3.
The amount of exogenous insulin the diabetic monkeys received to maintain proper glucose levels, the exogenous insulin requirement, is also presented in Table 4 as baseline values vs. 8-week treatment. […] A reduction in exogenous insulin requirements is a measure of improved insulin sensitivity and glucose control.

[2] = tested on: insulin resistant cynomolgus monkeys; test: Eight-week rising-dose treatment of insulin resistant cynomolgus monkeys; type: in vivo; settings: for Leptin (plasma, ELISA): Insulin Resistant Treated; for Insulin Resistant Monkey Mean Body Weight: treated group (Txt)
Experimental: as §1
as §2, with “3. […]” for “3.”

[3] = Post-Treatment (8-week treatment)
[4] = 2 wk, rising dose 0.1 to 1 mg/kg
[5] = 8 wk, rising dose 0.1 to 1 mg/kg

## COc1cc(OCC(=O)O)c(C)cc1SCc1ccc(-c2ccc(C(F)(F)F)cc2)cc1 [Example 4, [5-Methoxy-2-methyl-4-(4′-trifluoromethyl-biphenyl-4-ylmethylsulfanyl)-phenoxy]-acetic acid]
hPPARβ
  EC50: < 300 nM
hApoA1 transgenic mouse
  lowered triglycerides relative to the control population: 65%
  raised HDL-c relative to the control population: 97%
other
  melting point: 170 to 171 °C
hPPARα
  EC50: < 300 nM

## Cc1cc(SCc2ccc(-c3ccc(Cl)c(C(F)(F)F)c3)cc2)ccc1OCC(=O)O [Example 6, [4-(4′-Chloro-3′-trifluoromethyl-biphenyl-4-ylmethylsulfanyl)-2-methyl-phenoxy]-acetic acid]
hApoA1 transgenic mouse
  lowered triglycerides relative to the control population: 59%
  raised HDL-c relative to the control population: 24%

## COc1cc(OCC(=O)O)c(C)cc1SCc1ccc(-c2ccc(C(F)(F)F)cc2)cc1 [[5-Methoxy-2-methyl-4-(4′-trifluoromethyl-biphenyl-4-ylmethylsulfanyl)-phenoxy]-acetic acid]
[1]; [3]
  Exogenous Insulin Requirement: 18 ± 4 u/day
  Leptin (plasma, ELISA): 10.89 ± 2.7 ng/mL
[1]; Pre-Treatment (baseline)
  Exogenous Insulin Requirement: 66 ± 16 u/day
  Leptin (plasma, ELISA): 7.22 ± 0.93 ng/mL
[1]; diabetic obese cynomolgus monkeys, treated vs control, baseline vs 8 weeks
  effect on plasma leptin values: lesser increase in plasma leptin values
[1]; [4]
  Diabetic Monkey Mean Body Weight: 8.75 kg
[1]; 5 wk, rising dose 0.1 to 1 mg/kg
  Diabetic Monkey Mean Body Weight: 8.37 kg
[1]; 7 wk, rising dose 0.1 to 1 mg/kg
  Diabetic Monkey Mean Body Weight: 8.08 kg
[1]; [5]
  Diabetic Monkey Mean Body Weight: 7.8 kg
[1]; Mean Baseline
  Diabetic Monkey Mean Body Weight: 8.87 kg
[1]; −4 wk, before treatment
  Diabetic Monkey Mean Body Weight: 8.91 kg
[1]; −7 wk, before treatment
  Diabetic Monkey Mean Body Weight: 8.84 kg
[2]; [3]
  Leptin (plasma, ELISA): 5.73 ± 2.14 ng/mL
[2]; Pre-Treatment (baseline)
  Leptin (plasma, ELISA): 7.33 ± 1.16 ng/mL
[2]; insulin resistant obese cynomolgus monkeys, treated vs control, baseline vs 8 weeks
  effect on plasma leptin values: lesser increase in plasma leptin values
[2]; [4]
  Insulin Resistant Monkey Mean Body Weight: 5.26 kg
[2]; 4 wk, rising dose 0.1 to 1 mg/kg
  Insulin Resistant Monkey Mean Body Weight: 5.04 kg
[2]; 6 wk, rising dose 0.1 to 1 mg/kg
  Insulin Resistant Monkey Mean Body Weight: 4.91 kg
[2]; [5]
  Insulin Resistant Monkey Mean Body Weight: 4.71 kg
[2]; Mean Baseline
  Insulin Resistant Monkey Mean Body Weight: 5.29 kg
[2]; −4 wk, before treatment
  Insulin Resistant Monkey Mean Body Weight: 5.32 kg
[2]; −7 wk, before treatment
  Insulin Resistant Monkey Mean Body Weight: 5.25 kg

## O=C(O)COc1ccc(SCc2ccc(OCc3ccc(F)c(C(F)(F)F)c3)cc2)c2c1CCC2 [Example 74, {7-[4-(4-Fluoro-3-trifluoromethyl-benzyloxy)-benzylsulfanyl]-indan-4-yloxy}-acetic acid]
hPPARβ
  EC50: < 300 nM
other
  melting point: 116 to 117 °C
hPPARα
  EC50: 2000 to 5000 nM

## COc1cc(OCC(=O)O)c(C)cc1SCc1cccc(-c2cccc(OC(F)(F)F)c2)c1 [Example 16, [5-Methoxy-2-methyl-4-(3′-trifluoromethoxy-biphenyl-3-ylmethylsulfanyl)-phenoxy]-acetic acid]
hPPARβ
  EC50: < 300 nM
other
  melting point: 92 to 94 °C
hPPARα
  EC50: < 300 nM

## Cc1cc(SCCc2ccc(-c3ccc(C(F)(F)F)cc3)cc2)ccc1OCC(=O)O [Example 22, {2-Methyl-4-[2-(4′-trifluoromethyl-biphenyl-4-yl)-ethylsulfanyl]-phenoxy}-acetic acid]
hPPARβ
  EC50: 1000 to 2000 nM
other
  melting point: 132 to 134 °C
hPPARα
  EC50: 500 to 1000 nM

## COc1cc(OCC(=O)O)c(C)cc1SCCc1ccc(-c2ccc(C(F)(F)F)cc2)cc1 [Example 23, {5-Methoxy-2-methyl-4-[2-(4′-trifluoromethyl-biphenyl-4-yl)-ethylsulfanyl]-phenoxy}-acetic acid]
hPPARβ
  EC50: < 300 nM
other
  melting point: 169 to 171 °C
hPPARα
  EC50: < 300 nM

## Cc1cc(SCc2ccc(OCc3cc(Cl)ccc3Cl)cc2)ccc1OCC(=O)O [Example 59]
hPPARβ
  EC50: 1000 to 2000 nM
other
  melting point: 101 to 103 °C
hPPARα
  EC50: > 5000 nM

## Cc1cc(SCc2ccc(-c3ccc(C(F)(F)F)cn3)cc2)c2c(c1OCC(=O)O)CCCO2 [Example 36, {6-Methyl-8-[4-(5-trifluoromethyl-pyridine-2-yl)-benzylsulfanyl]-chroman-5-yloxy}-acetic acid]
hPPARβ
  EC50: 2000 to 5000 nM
other
  melting point: 156 to 157 °C
hPPARα
  EC50: < 300 nM

## Cc1cc(SCc2ccc(-c3ccc(C(F)(F)F)cc3)cc2)ccc1OCC(=O)O [Example 3, [2-Methyl-4-(4′-trifluoromethyl-biphenyl-4-ylmethylsulfanyl)-phenoxy]-acetic acid]
hPPARβ
  EC50: < 300 nM
hApoA1 transgenic mouse
  lowered triglycerides relative to the control population: 70%
  raised HDL-c relative to the control population: 9%
other
  melting point: 140 to 141 °C
hPPARα
  EC50: 2000 to 5000 nM

## COc1cc(OCC(=O)O)c(C)cc1SCc1ccc(-c2cccc(C(F)(F)F)c2)cc1 [Example 9, [5-Methoxy-2-methyl-4-(3′-trifluoromethyl-biphenyl-4-ylmethylsulfanyl)-phenoxy]-acetic acid]
hPPARβ
  EC50: < 300 nM
other
  melting point: 138 to 139 °C
hPPARα
  EC50: < 300 nM

## Cc1cc(SCc2ccc(OCc3ccc(F)cc3F)cc2)ccc1OCC(=O)O [Example 31, {4-[4-(2,4-Difluoro-benzyloxy)-benzylsulfanyl]-2-methyl-phenoxy}-acetic acid]
hPPARβ
  EC50: > 5000 nM
other
  melting point: 139 to 141 °C
hPPARα
  EC50: 1000 to 2000 nM
